The values below come from the Deep4Chem optical property database.

The data set is described as follows: photoluminescence quantum yield (fraction); solvent given as SMILES.

SMILES strings stand for the structures.

In the case of `NCCCCCCCCCCCCN1C(=O)c2ccc3c4ccc5c6c(ccc(c7ccc(c2c37)C1=O)c64)C(=O)N(CCCCCCCCCCCCN)C5=O`, under “in CN(C)C=O”, the photoluminescence quantum yield turned out to be 0.83.
In the case of `CCN(CC)c1ccc2c(c1)oc(=O)c1c(C)nc3c(c(-c4ccccc4)nn3-c3ccccc3)c12`, the photoluminescence quantum yield is, setting by setting: (in C1CCCCC1) 0.635; (in CCOC(C)=O) 0.634; (in CN(C)C=O) 0.51; (in CO) 0.396; (in ClCCl) 0.653.
As for `Cc1cc(C)c(C2=C(c3c(C)sc(-c4ccc(-c5nc(-c6ccccc6)c(-c6ccccc6)[nH]5)cc4)c3C)C(F)(F)C(F)(F)C2(F)F)s1`, the photoluminescence quantum yield (in C1CCOC1) came to 0.091.
For the setting “in Cc1ccccc1”, `CCC1(CC)c2cc(/C=C/c3ccc(N(c4ccccc4)c4ccccc4)cc3)ccc2-c2ccc(/C=C/c3ccc(N(c4ccccc4)c4ccccc4)cc3)cc21` came in with a photoluminescence quantum yield of 0.84.
Take `COc1ccc2ncccc2c1`: the photoluminescence quantum yield reads like this: (in CC#N) 0.071; (in CCCC#N) 0.075; (in Cc1ccccc1) 0.014.
Consider `COc1ccc(-c2cc(-c3ccc(OC)cc3)c3c(N)nc(N4CCCC4)c(C#N)c3n2)cc1`, for which the photoluminescence quantum yield was determined as 0.095 (in CC#N) and 0.077 (in c1ccccc1).
In turn, `C[Si](C)(C)c1ccc([Si](C)(C)C)c2ccccc12` showed a photoluminescence quantum yield (in C1CCCCC1) of 0.33.
The compound `Cc1cc2ccccc2c2c1c1ccccc1n2-c1ccc(C#N)cc1` showed a photoluminescence quantum yield (in ClCCl) of 0.04.
As for `N#C/C=C/c1ccc2ccc3cccc4ccc1c2c34`, the photoluminescence quantum yield runs as follows: (in C1CCOC1) 0.72; (in C1COCCO1) 0.63; (in CC#N) 0.32; (in CC(C)=O) 0.62; (in CCCCCC) 0.53; (in CCOC(C)=O) 0.62. In addition, the photoluminescence quantum yield by setting is: (in CO) 0.44; (in Cc1ccccc1) 0.55.
For the compound `c1ccc2c(c1)-c1ccccc1C21c2ccccc2-c2oc3c(c21)C1(c2ccccc2-c2ccccc21)c1ccccc1-3`, the photoluminescence quantum yield (in C1CCOC1) is 0.39.
As to `CN(C)c1ccc2nc(-c3ccc(C=C(C#N)C#N)cc3)sc2c1`, the photoluminescence quantum yield was 0.85 (in C1CCCCC1), 0 (in CC#N), 0 (in CO) and 0.64 (in ClC(Cl)Cl).
`CC1=C(c2ccc(N(c3ccccc3)c3ccccc3)cc2)C(C)=[N+]2C1=C(c1c(-c3ccccn3)nc3ccccn13)c1c(C)c(-c3ccc(N(c4ccccc4)c4ccccc4)cc3)c(C)n1[B-]2(F)F` yielded a photoluminescence quantum yield (in ClCCl) of 0.0078.
`O=[N+]([O-])c1ccc(C#Cc2ccccc2C#Cc2ccc([N+](=O)[O-])cc2)cc1`: under “in CC#N”, the photoluminescence quantum yield is 0.
On to `C1=Cc2ccccc2C(=Cc2ccc(-c3ccc(C=C4c5ccccc5C=Cc5ccccc54)cc3)cc2)c2ccccc21`, for which the photoluminescence quantum yield (in C1CCOC1) is 0.00012.
Regarding `O=C1c2ccc(N(c3ccccc3)c3ccccc3)cc2C(=O)c2ccc(N(c3ccccc3)c3ccccc3)cc21`, the photoluminescence quantum yield (in Cc1ccccc1) is 0.2 and the photoluminescence quantum yield (in c1ccc2c(c1)c1ccccc1n2-c1ccc(-c2ccc(-n3c4ccccc4c4ccccc43)cc2)cc1) came to 0.5.
For the setting “in C1CCOC1”, `CC1=[N+]2C(=C(c3ccc(C(=C(c4ccccc4)c4ccccc4)c4ccccc4)cc3)c3ccc(/C=C/c4ccc(C(=C(c5ccccc5)c5ccccc5)c5ccccc5)cc4)n3[B-]2(F)F)C=C1` came in with a photoluminescence quantum yield of 0.619.
As to `C(=C\c1cccc2ccccc12)/c1ncc(-c2ccccc2)o1`, for the setting “in ClCCl”, the photoluminescence quantum yield amounted to 0.32.
As to `CN(C)c1ccc(N(C)C)cc1`, for the setting “in C1CCCCC1”, the photoluminescence quantum yield came to 0.21.
Consider `COc1ccc(-c2nc(C(C)=O)c(C)o2)cc1`, for which the photoluminescence quantum yield reads like this: (in CC#N) 0.056; (in CCO) 0.053; (in CCOC(C)=O) 0.134; (in CCOCC) 0.019; (in ClCCl) 0.051.
Turning to `[C-]#[N+]c1ccc(-c2ccc(N(C)C)cc2)cc1`, the photoluminescence quantum yield runs as follows: (in C1CCCCC1) 0.82; (in C1CCOC1) 0.85; (in C1COCCO1) 0.74; (in CC#N) 0.89; (in CC(C)=O) 0.54; (in CCCCCC) 0.66. Moreover, the photoluminescence quantum yield runs as follows: (in CCOC(C)=O) 0.54; (in CN(C)C=O) 0.86; (in CO) 0.15; (in CS(C)=O) 0.76; (in Cc1ccccc1) 0.62; (in ClC(Cl)Cl) 0.19. Further, the photoluminescence quantum yield reads like this: (in ClCCl) 0.8; (in O) 0.016; (in c1ccncc1) 0.63.
In the case of `N#Cc1c(-n2c3ccccc3c3cc(Br)ccc32)c(C#N)c(-n2c3ccccc3c3cc(Br)ccc32)c(-n2c3ccccc3c3cc(Br)ccc32)c1-n1c2ccccc2c2cc(Br)ccc21`, the photoluminescence quantum yield (in Cc1ccccc1) was found to be 0.85.
`C(=C(c1ccccc1)c1ccccc1)c1ccc(C=C(c2ccccc2)c2ccccc2)cc1`: the photoluminescence quantum yield (in C1CCOC1) stood at 0.017.
Consider `N#Cc1ccc(C[C@H](N)C(=O)O)cc1`, for which the photoluminescence quantum yield is 0.031 (in C1CCOC1); 0.026 (in CC#N); 0.071 (in CC(C)O); 0.1 (in CC(O)CO); 0.079 (in CCCCO); 0.074 (in CCCO). Also, the photoluminescence quantum yield came to 0.034 (in CCO); 0.076 (in CO); 0.083 (in NC=O); 0.11 (in O); 0.17 (in O=CO).
`C(#Cc1cc(C#Cc2ccccc2)c(C#Cc2ccccc2)c(C#Cc2ccccc2)c1C#Cc1ccccc1)c1ccccc1`: the photoluminescence quantum yield (in ClCCl) is 0.26.
`CCN(CC)c1ccc2cc(C#N)/c(=N\C(=O)C(C)C)oc2c1`: the photoluminescence quantum yield reads like this: (in CCO) 0.047; (in ClCCl) 0.83.
For `NC(=O)CC[C@H](/[NH+]=C\C=C1\C=C(C(=O)O)N[C@H](C(=O)O)C1)C(=O)O`, the photoluminescence quantum yield by setting is: (in CCO) 0.017; (in CO) 0.011; (in O) 0.0073; (in OCC(F)(F)F) 0.014; (in OCCO) 0.039.
In the case of `CC[Si](CC)(CC)c1cc2ccc3cccc4ccc(c1C(=O)NC(C)(C)C)c2c34`, the photoluminescence quantum yield (in ClC(Cl)Cl) turned out to be 0.162.
`CCC(CC)n1c2ccccc2c2cc3c(cc21)c1ccccc1n3C(CC)CC` displayed a photoluminescence quantum yield (in ClC(Cl)Cl) of 0.16.
`CC(C)[Si](C#Cc1c2ccccc2c(C#C[Si](C(C)C)(C(C)C)C(C)C)c2nc3c(ccc4ccccc43)nc12)(C(C)C)C(C)C` registered a photoluminescence quantum yield (in CCCCCC) of 0.51.
Take `COc1ccc(C2=[N+]3C(=Cc4c5ccc(OC)cc5c(-c5ccc(OC)cc5)n4[B-]3(F)F)c3ccc(OC)cc32)cc1`: the photoluminescence quantum yield (in ClCCl) came to 0.49.
`O=c1cc2cc(O)c3cccc4ccc(o1)c2c43` came in with a photoluminescence quantum yield (in CC1CCCO1) of 0.35.
Compound `CCCCc1ccc2ccc3cccc4ccc1c2c34` had a photoluminescence quantum yield (in CCCCCC) of 0.35, a photoluminescence quantum yield (in CO) of 0.31 and a photoluminescence quantum yield (in ClCCl) of 0.41.
In turn, `CCCCCCCCCCCCOc1cc(C(=O)Nc2ccc(-c3ccc4c(c3)C(=O)c3ccccc3-4)cc2)cc(OCCCCCCCCCCCC)c1OCCCCCCCCCCCC` had a photoluminescence quantum yield (in C1CCOC1) of 0.04.
Regarding `CCC1=C(C2=C(C3=C(CC)S(=O)(=O)c4cc(-c5ccc(C)s5)ccc43)C(F)(F)C(F)(F)C2(F)F)c2ccc(-c3ccc(C)s3)cc2S1(=O)=O`, where the note is “in C1COCCO1”, the photoluminescence quantum yield was found to be 0.
`COC(=O)c1ccc(/C=C2\N=C(c3ccc(OC)c(OC)c3)NC2=O)cc1` returned a photoluminescence quantum yield (in C1COCCO1) of 0.295.
Compound `Nc1cc(N)cc(-c2nc3ccccc3s2)c1` had a photoluminescence quantum yield (in C1CCCCC1) of 0.102; a photoluminescence quantum yield (in C1COCCO1) of 0.06; a photoluminescence quantum yield (in CC#N) of 0.05; a photoluminescence quantum yield (in CC(C)O) of 0.055; a photoluminescence quantum yield (in CCOC(C)=O) of 0.053; a photoluminescence quantum yield (in CCOCC) of 0.061. Moreover, the photoluminescence quantum yield runs as follows: (in CO) 0.015; (in O) 0.0091.
For the compound `Cc1ccc(O)c(-c2[nH]c(=O)n3c2-c2ccccc2C3=O)c1`, the photoluminescence quantum yield worked out at 0.51 (in CC#N), 0.25 (in CO) and 0.62 (in ClCCl).
In the case of `Cc1ccccc1-c1c2cccc3c(-c4ccc(C(C)(C)C)cc4)cc4c(-c5ccccc5C)c5cccc6c(-c7ccc(C(C)(C)C)cc7)cc1c(c65)c4c32`, the photoluminescence quantum yield (in ClCCl) turned out to be 0.28.
On the same count and under the same terms, the same measure for `CCc1ccc(C2=[N+]3C(=Cc4c5ccc(OC)cc5c(-c5ccc(CC)s5)n4[B-]3(F)F)c3ccc(OC)cc32)s1`: 0.2.
Consider `CC1=[N+]2C(=C(c3ccc(N(C)C)cc3)c3ccc(C)n3[B-]2(F)F)C=C1`, for which the photoluminescence quantum yield is, setting by setting: (in C1CCCCC1) 0.37; (in CC#N) 0.008; (in CC(=O)C(C)(C)C) 0.024; (in CC(C)=O) 0.006; (in CCCCCC) 0.376; (in CO) 0.03. Also, the photoluminescence quantum yield was 0.15 (in Cc1ccccc1) and 0.058 (in ClC(Cl)Cl).
Take `CC1(C)c2ccccc2N(c2ccc3c(c2)c2cc(N4c5ccccc5C(C)(C)c5ccccc54)ccc2c2nc4ccccc4nc32)c2ccccc21`: the photoluminescence quantum yield (in c1cc(-c2cccc(-n3c4ccccc4c4ccccc43)c2)cc(-n2c3ccccc3c3ccccc32)c1) amounted to 0.84.
As for `c1ccc(-c2nc3c(-c4ccc(N(c5ccccc5)c5ccccc5)cc4)ccc(-c4ccc(N(c5ccccc5)c5ccccc5)cc4)c3nc2-c2ccccc2)cc1`, the photoluminescence quantum yield (in ClC(Cl)Cl) turned out to be 0.51.
Turning to `CCCCCCCCc1ccc(-c2ccc(/C=C(\C#N)c3ccc(-c4cccc5cccc(-c6ccc(/C(C#N)=C/c7ccc(-c8ccc(CCCCCCCC)cc8)cc7)cc6)c45)cc3)cc2)cc1`, the photoluminescence quantum yield (in Cc1ccccc1) was determined as 0.12.
